Source: US20230219995A1, “FLUORESCENT CYTOSINE ANALOGUES AND THEIR APPLICATION IN TRANSCRIPTION AND TRANSLATION” (STEALTH LABELS BIOTECH AB, priority 2020, published 2023)

Experiments:
T7 RNA polymerase = molecular target: T1, T7 RNA polymerase (Escherichia phage T7, UniProt P00573); test: Cell-free in vitro transcription with T7 RNA polymerase (tC^O TP/CTP ratios 0-100%); assay type: biochemical, bacteriophage
T1 construct: purchased Thermo Scientific

SP6 RNA polymerase = molecular target: T2, SP6 RNA polymerase (Enterobacteria phage SP6, UniProt P06221); test: Cell-free in vitro transcription with SP6 RNA polymerase (tC^O TP/CTP ratios 0-100%); assay type: biochemical, bacteriophage; details: tC^O TP/canonical CTP ratios 0 to 100%, agarose bleach gel
T2 construct: purchased Thermo Scientific
T2 sequence (P06221 1-874): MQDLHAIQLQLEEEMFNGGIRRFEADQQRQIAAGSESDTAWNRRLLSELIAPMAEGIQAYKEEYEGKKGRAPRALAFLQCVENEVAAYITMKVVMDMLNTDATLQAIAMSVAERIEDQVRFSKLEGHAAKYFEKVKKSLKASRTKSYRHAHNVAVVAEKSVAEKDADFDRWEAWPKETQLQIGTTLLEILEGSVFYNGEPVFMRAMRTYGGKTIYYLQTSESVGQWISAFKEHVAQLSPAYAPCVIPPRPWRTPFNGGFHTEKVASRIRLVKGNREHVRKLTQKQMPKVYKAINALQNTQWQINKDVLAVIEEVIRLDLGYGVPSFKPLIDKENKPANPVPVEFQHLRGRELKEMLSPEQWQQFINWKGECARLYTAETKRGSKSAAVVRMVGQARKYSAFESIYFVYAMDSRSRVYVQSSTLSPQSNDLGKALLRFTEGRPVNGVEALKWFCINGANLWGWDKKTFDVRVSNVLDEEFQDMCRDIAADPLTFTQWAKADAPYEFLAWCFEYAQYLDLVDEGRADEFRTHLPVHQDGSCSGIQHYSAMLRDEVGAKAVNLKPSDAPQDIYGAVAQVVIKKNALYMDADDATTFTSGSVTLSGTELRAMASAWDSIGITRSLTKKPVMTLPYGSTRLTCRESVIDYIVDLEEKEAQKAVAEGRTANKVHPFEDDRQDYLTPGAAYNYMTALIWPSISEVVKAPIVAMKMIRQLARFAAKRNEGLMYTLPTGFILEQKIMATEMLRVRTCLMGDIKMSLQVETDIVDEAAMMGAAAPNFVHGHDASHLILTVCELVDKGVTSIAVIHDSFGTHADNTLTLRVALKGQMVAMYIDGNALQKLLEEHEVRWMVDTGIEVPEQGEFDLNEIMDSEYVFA

[1] = Steady state absorption, emission and fluorescence quantum yield of tC^O-modified RNA transcripts; assay type: physicochemical; details: free triphosphate
Protocol: A spectroscopic approach was used to quantify the incorporation efficiency of tC^O TP, compared to the canonical CTP. To enable this, all RNA transcripts were purified using a Monarch RNA Cleanup kit, ensuring complete removal of unreacted tC^O TP.
The tC^O-RNA products from the cell-free transcription reactions (prior to polyadenylation and capping, see Methods: Bio for details) were measured as received, i.e. in RNAse free Milli Q water. All measurements were carried out at room temperature (ca. 22° C.) in a 3.0 mm path length quartz cuvette, with a sample volume of ca. 60 μL.
Absorption spectra were recorded on a Cary 5000 (Varian Technologies) spectrophotometer with a wavelength interval of 1.0 nm, integration time of 0.1 s, and a spectral band width (SBW) of 1 nm. All spectra were baseline corrected by subtracting the corresponding absorption from the solvent only. A second-order polynomial Savitzky-Golay (five points) smoothing filter was applied to all spectra. […]
Emission spectra were recorded on a SPEX Fluorolog (Jobin Yvon Horiba) fluorimeter with excitation at 356 nm. […]
Sample fluorescence quantum yields (ΦF) were determined relative to a solution of quinine sulphate (Sigma) in 0.5 M H2SO4 (ΦF,REF=0.546) and calculated according to equation S2. […]

T1 sequence (P00573 whole entry): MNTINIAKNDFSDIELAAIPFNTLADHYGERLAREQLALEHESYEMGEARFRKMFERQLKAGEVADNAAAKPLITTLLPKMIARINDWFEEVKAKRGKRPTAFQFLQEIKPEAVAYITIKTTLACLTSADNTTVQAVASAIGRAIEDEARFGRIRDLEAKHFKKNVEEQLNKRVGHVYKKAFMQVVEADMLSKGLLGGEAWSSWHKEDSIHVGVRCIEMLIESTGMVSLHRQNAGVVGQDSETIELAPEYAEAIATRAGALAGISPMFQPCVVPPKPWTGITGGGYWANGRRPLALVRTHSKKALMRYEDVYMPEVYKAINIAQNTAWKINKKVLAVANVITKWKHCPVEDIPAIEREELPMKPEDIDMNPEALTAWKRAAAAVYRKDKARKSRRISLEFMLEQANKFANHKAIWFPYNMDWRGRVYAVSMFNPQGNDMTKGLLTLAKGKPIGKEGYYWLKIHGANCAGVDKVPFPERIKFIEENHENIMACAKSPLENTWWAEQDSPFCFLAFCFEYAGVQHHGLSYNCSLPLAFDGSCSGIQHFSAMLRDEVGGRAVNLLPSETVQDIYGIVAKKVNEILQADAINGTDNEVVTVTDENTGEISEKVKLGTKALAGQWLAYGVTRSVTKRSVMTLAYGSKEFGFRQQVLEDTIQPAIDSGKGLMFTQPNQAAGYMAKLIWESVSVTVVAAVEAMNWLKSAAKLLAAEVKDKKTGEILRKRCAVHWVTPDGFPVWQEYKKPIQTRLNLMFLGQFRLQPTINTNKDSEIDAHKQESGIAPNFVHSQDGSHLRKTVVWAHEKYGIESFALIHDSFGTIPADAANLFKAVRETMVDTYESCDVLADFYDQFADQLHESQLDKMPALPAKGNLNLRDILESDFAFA

((2R,3S,4R,5R)-3,4-dihydroxy-5-(2-oxo-2,10-dihydro-3H-benzo[b]pyrimido[4,5-e][1,4]oxazin-3-yl)tetrahydrofuran-2-yl)methyl triphosphate [tC^O TP]
kC/ktC^O, ratio of first-order rate constants for incorporation of CTP vs. tC^O TP (T7 RNA polymerase; calculated from absorption at 260 nm and 370 nm of purified transcripts): 0.96-1.4
transcription and tC^O incorporation into full-length H2B:GFP mRNA (T7 RNA polymerase; tC^O TP/canonical CTP ratios 0 to 100%, agarose bleach gel): Efficient transcription and tC^O incorporation
transcription and tC^O incorporation into full-length H2B:GFP mRNA (SP6 RNA polymerase): Efficient transcription and tC^O incorporation
tC^O-band absorption λmax [1]: 360 nm
